Reference: patent EP3351262A1, “CURAGLUTIDE FOR IN TREATMENT OF PREDIABETES, DIABETES, OBESITY AND METABOLIC DISEASES ASSOCIATED THERETO” (Istanbul Universitesi Rektorlugu, priority 2016, dated 2018)
Several values for one entry are separate records, joined by “and”; a condition that tells them apart may be missing. Equal values may be shown once.

Key:
Type in all cases: cell-based, rat
LC3-II = experiment: Western blotting of autophagy marker LC3-II in cell lysates; conditions: for amount of intracellular LC3-II: control 0.44±0.00; for LC3-II amounts: INS-1 cells
Experimental: (§1) Trypsin is applied to 75 cm^2 flask containing INS-1 […] beta cells and it is centrifuged in 1500 rpm for 15 minutes. According to the density of pellet formed after centrifuge, it is centrifuged at 4 °C in 1500 rpm for 5 minutes by providing the washing with pipetting with PBS and transferring into 2 ml eppendorf. The supernatant was removed, lysis buffer was added according to the density of pellet and pipetting is performed carefully. It was left for 30 minutes on the ice by vortexing in every 10 minutes. Then the cells were allowed to lysis by ultrasonication for 10 seconds for 5 times, keeping on ice for 10 seconds and they were centrifuged at 4 °C in 13000 rpm for 10 minutes. The supernatant occurred was taken to 0,2 ml eppendorf tubes, and they were taken to -86 °C temperature. These operations were repeated for 3 times for each of the control and experiment groups.
(§2) Bradford method was used in order to determine the protein content. First, a standard curve was formed by using BSA (bovine serum albumin) having a concentration of 1.46 mg/ml. This curve was prepared as following: Bradford solution was added into 80 µg/ml, 40 µg/ml, 20 µg/ml, 10 µg/ml BSA, their absorbance was measured in 595 nm, it was diluted in a way that the lysates are 1/100 and 160 µl was taken, their absorbance in the same wavelengths was determined. After absorbance/concentration graph of the standards was obtained, the concentrations of the samples whose concentrations are […] were determined by using the slope equation of this graph.
(§3) Protein bands separated by electrophoresis in gel were transferred from the gel into nitrocellulose membrane. After membrane transferring operation, transfer efficiency was controlled for 15 minutes by using Ponceau S painting solution.
(§4) The membrane wherein the proteins were transferred, was incubated at room temperature for 1 hour with blocking solution prepared with skimmed milk powder. The membranes were incubated with primary antibodies suitable diluting ratios (Table 1) for 1 night at +4 °C, following the blocking operation. Following this operation, washed membranes were treated with peroxidase marked goat anti-rabbit secondary IgGs (Santa Cruz, CA, USA, sc-2004) at room temperature for 1 hour. Following the treatment with secondary antibodies of membranes, they were washed with washing solution and shaken with pure water. Then, the specific protein bands were monitored by KodakGL1500 gel monitoring system, by chemiluminescence method using Western Blotting Luminol Reagent (Santa Cruz, CA, USA, sc-2048) chemiluminescence substrate. Their densitometric analysis were performed by "Kodak Molecular Imaging Systems" software. The statistical analysis between the bands were performed by normalizing the band densities of the protein samples whose densitometric analysis were performed, to the density of β-actin protein. Table 1: The primary antibodies used in Western blotting method, the dilution ratios and periods thereof
In order to determine the autophagic dose, LC3-II protein amounts which are the autophagic markers were determined by western blotting method by obtaining lysate from the cells on which 0.75, 1, 1.75, 2, 2.5 and 3 mM palmitic acid was applied. The graph obtained from western blotting bands and the calculation performed as a result of the analysis of these bands is shown in Figure 2.
Intracellular LC3 protein amount was observed by western blotting in order to examine the effect of curaglutide on autophagy stimulated by 1,75 mM palmitic acid in INS-1 beta cells.

p53 = experiment: Western blotting of apoptotic protein p53 in cell lysates; conditions: for amount of intracellular p53: control 1.06±0.00; for p-53 amounts: INS-1 cells, normalized to β-actin
Experimental: as §1, §2, §3, §4
In order to determine the apoptosis dose, p 53, cytochrome-c and active caspase-3 protein amounts were determined by western blotting method by obtaining lysate from the cells in which 0.75, 1,1.75,2,2.5 and 3 mM palmitic acid were applied. The graph obtained from western blotting bands and the calculation performed as a result of the analysis of these bands is shown in Figure 3.
The amount of intracellular proteins such as p53, cytochrome-c and active caspase-3 were observed by western blotting in order to examine the effect of curaglutide on apoptosis stimulated by 2 mM palmitic acid in INS-1 beta cells.

INS-1 beta cells = experiment: ROS measurement with H2DCFDA; conditions: INS-1 cells, 3rd hour, control 100%
Experimental: When this compound oxidizes by oxidants or free radicals, fluorescent dichlorofluorescein (DCF) will occur.
INS-beta cells were cultured into the plates covered with black with 96 wells in a way such that there would be 50 000 cells in 100 µl. After the growth of the cells, the experiment group (only palmitic acid given) and the groups wherein curaglutide as both protective and therapeutical against palmitic acid was given were removed at the end of the experiment, and each of the wells were washed with PBS. Then 100 µl PBS was added to every well. Then, start of experiment was accepted as 0th hour by adding 10 mM DCFA and the measurements were taken for 3 hours in every 30 minutes, including 0th hour. The absorbance values of each group and the absorbance values in 3rd hour was calculated by assuming the value of the control group as 100%.
ROS measurement was performed by applying H 2 DCFDA occurred as a result of chemical […] of fluorescein which is used as a marker for reactive oxygen derivatives (ROS) to INS-1 beta cells wherein palmitic acid was applied in different doses, and the results are shown in Figure 5.
ROS measurement was performed by applying 10 nM curaglutide as protector and therapeutical to INS-1 beta cells wherein palmitic acid was applied in different doses, and the results are shown in Figure 11.

Question: Which results are given for `CC[C@H](C)[C@H](NC(=O)[C@H](Cc1ccccc1)NC(=O)[C@H](CCC(=O)O)NC(=O)[C@H](CCCCN)NC(=O)[C@H](C)NC(=O)[C@H](C)NC(=O)[C@H](CCC(N)=O)NC(=O)CNC(=O)[C@H](CCC(=O)O)NC(=O)[C@H](CC(C)C)NC(=O)[C@H](Cc1ccc(O)cc1)NC(=O)[C@H](CO)NC(=O)[C@H](CO)NC(=O)[C@@H](NC(=O)[C@H](CC(=O)O)NC(=O)[C@H](CO)NC(=O)[C@@H](NC(=O)[C@H](Cc1ccccc1)NC(=O)[C@@H](NC(=O)CNC(=O)[C@H](CCC(=O)O)NC(=O)[C@H](C)NC(=O)[C@H](Cc1c[nH]cn1)NC(C)=O)[C@@H](C)O)[C@@H](C)O)C(C)C)C(=O)N[C@@H](C)C(=O)N[C@@H](Cc1c[nH]c2ccccc12)C(=O)N[C@@H](CC(C)C)C(=O)N[C@H](C(=O)N[C@@H](CCCCN)C(N)=O)C(C)C` [curaglutide]?
Answer: amount of intracellular LC3-II (LC3-II; 10 nM curaglutide as curative agent, 1.75 mM palmitic acid (autophagic dose)): 0.32±0.00; amount of intracellular LC3-II (LC3-II; 10 nM curaglutide as protector, 1.75 mM palmitic acid (autophagic dose)): 0.29±0.00; amount of intracellular p53 (p53; 10 nM curaglutide as curative agent, 2 mM palmitic acid (apoptotic dose)): 0.65±0.13; amount of intracellular p53 (p53; 10 nM curaglutide as protector against 2 mM palmitic acid (apoptotic dose)): 0.54±0.24

Question: Which ROS measurement percentages (INS-1 beta cells; 0.5 mM palmitic acid) does the source give for `CCCCCCCCCCCCCCCC(=O)O` [palmitic acid] here?
Answer: Its ROS measurement percentages is 116±6.01%.

Question: And the ROS measurement percentages (INS-1 beta cells; 1 mM palmitic acid)?
Answer: The ROS measurement percentages was 117±2.5%.

Question: And the ROS measurement percentages (INS-1 beta cells; 1.5 mM palmitic acid)?
Answer: Its ROS measurement percentages is 119.7±7.0%.

Question: And the ROS measurement percentages (INS-1 beta cells; 1.75 mM palmitic acid)?
Answer: The ROS measurement percentages was 136.5±5.6%.

Question: What about the ROS measurement percentages (INS-1 beta cells; 2 mM palmitic acid) of the same compound?
Answer: The ROS measurement percentages was 145.8±3.8%.

Question: What about the ROS measurement percentages (INS-1 beta cells; 2.5 mM palmitic acid) of the same compound?
Answer: Its ROS measurement percentages is 172.1±6.1%.

Question: And the ROS measurement percentages (INS-1 beta cells; 3 mM palmitic acid)?
Answer: Its ROS measurement percentages is 174.8±9.9%.

Question: And the ROS measurement percentages (INS-1 beta cells; 3.5 mM palmitic acid)?
Answer: Its ROS measurement percentages is 241.6±5.5%.

Question: And the ROS measurement percentages (INS-1 beta cells; 4 mM palmitic acid)?
Answer: Its ROS measurement percentages is 262.2±9.9%.

Question: What about the LC3-II amounts (LC3-II; 0.75 mM palmitic acid, band density normalized to β-actin, control 0.50±0.01) of the same compound?
Answer: Its LC3-II amounts is 0.60±0.00.

Question: What about the LC3-II amounts (LC3-II; 1 mM palmitic acid, band density normalized to β-actin, control 0.50±0.01) of the same compound?
Answer: The LC3-II amounts was 0.60±0.00.

Question: What about the LC3-II amounts (LC3-II; 1.75 mM palmitic acid (autophagic dose), normalized to β-actin, control 0.50±0.01 / 0.44±0.00) of the same compound?
Answer: Its LC3-II amounts is 0.70±0.03 and 0.70±0.01.

Question: What about the LC3-II amounts (LC3-II; 2 mM palmitic acid, band density normalized to β-actin, control 0.50±0.01) of the same compound?
Answer: The LC3-II amounts was 0.52±0.02.

Question: And the LC3-II amounts (LC3-II; 2.5 mM palmitic acid, band density normalized to β-actin, control 0.50±0.01)?
Answer: Its LC3-II amounts is 0.50±0.00.

Question: And the LC3-II amounts (LC3-II; 3 mM palmitic acid, band density normalized to β-actin, control 0.50±0.01)?
Answer: Its LC3-II amounts is 0.49±0.01.

Question: And the p-53 amounts (p53; 0.75 mM palmitic acid, control 1.04±0.00)?
Answer: Its p-53 amounts is 1.1±0.00.

Question: What about the p-53 amounts (p53; 1 mM palmitic acid, control 1.04±0.00) of the same compound?
Answer: The p-53 amounts was 1.14±0.00.

Question: What about the p-53 amounts (p53; 1.75 mM palmitic acid, control 1.04±0.00) of the same compound?
Answer: The p-53 amounts was 1.16±0.05.

Question: And the p-53 amounts (p53; 2 mM palmitic acid (apoptotic dose), control 1.04±0.00 / 1.06±0.00)?
Answer: The p-53 amounts was 1.3±0.02 and 1.31±0.02.

Question: What about the p-53 amounts (p53; 2.5 mM palmitic acid, control 1.04±0.00) of the same compound?
Answer: The p-53 amounts was 1.14±0.06.

Question: What about the p-53 amounts (p53; 3 mM palmitic acid, control 1.04±0.00) of the same compound?
Answer: The p-53 amounts was 1.03±0.00.
